# Experiments:
# [1] = tested on: normal human skin fibroblasts; conditions: even at a 100 μm concentration; cited from earlier work
# [2] = tested on: H460 cells (wild-type p53); assay: Growth assay, H460 cell line; format: cell-based, human
# Description: (§1) Non-small cell lung cancer cell lines H460 (wild-type p53), H358 (p53 deleted), and […] (p53 mutant) were obtained from Drs. Adi Gazdar and John Minna. A549 (wild-type p53) was obtained from ATCC (Rockville, Md.). All cell lines were grown in RPMI 1640 media supplemented with 5% heat inactivated fetal bovine serum and maintained at 5% CO2. All the studies were done when the cells were 70% confluent.
# (§2) For cell growth measurements, 5×10^4 cells were plated in each well of six well plates. Control and treated cells were trypsinized and counted using a hemocytotometer. Studies were performed in triplicate.
# The inventors tested the effect of 2-MeOE2 treatment on the growth characteristics of four different human lung cancer cell lines differing in their p53 status: H3.58 (p53 deleted), H322 (p53 mutated), H460 (wild-type p53), A549 (wild-type p53).
# The cells were treated with 5 μM of 2-MeOE2 or 16-epiestriol (another metabolite of estrogen) and growth of the cells was monitored for five days (FIG. 1).
# [3] = tested on: endothelial cells; conditions: read-out: half-maximal inhibitory concentration (IC50); cited from earlier work
# [4] = tested on: p53 DNA binding activity; assay: Electrophoretic mobility shift assay (EMSA), p53 DNA binding; format: cell-based, human; conditions: H460 cells, 5 μm for 48 h
# Description: Electrophoretic mobility shift assays (EMSA) were performed using nuclear extract prepared from the H460 cell line. Nuclear extracts were prepared from untreated control and 2-MeOE2 treated cells. Cells were washed in ice cold PBS and scraped into 0.5 ml nuclei harvesting buffer (10 mM HEPES, pH 7.9; 10 mM KCl; 0.1 mM ETA, 1 mM dithiothretol (DTT), 0.1% NP-40; 0.5 mM phenyl methyl-sulfonyl fluoride; […]; 0.5 mg/ml benzamidine). After 30 min of incubation on ice, lysates were centrifuged for 1 min at 4° C. The nuclear pellet was resuspended in nuclear harvesting buffer containing 0.4 M NaCl and incubated on ice for 1 h. The nuclear extracts were microfuged at 12,000 rpm for 30 min at 4° C. and supernatant was stored at −70° C.
# To perform electrophoretic mobility shift assays (EMSA), 10 μg of nuclear extract was mixed gently with 0.1 mg of poly (dl-dC) and 1 ng of ^32P-end labeled p53 consensus binding oligonucleotide in binding buffer (25 mM HEPES; pH 7.9; 0.5 mMEDTA; 0.5 mMDTT; 1% NP-40; 5% glycerol; 50 mM NaCl) in total reaction volume 20 μl. One microliter of (1 μg) p53 monoclonal antibody DO1 (Santa Cruz Biotechnology Inc., Calif.) was added to the DNA after binding and incubated for another 15 min to show the supershift. DNA-protein complexes were resolved in native 4.5% polyacrylamide gels. […]
# [5] = tested on: H460 cells; assay: TUNEL assay (TdT staining); format: cell-based, human; conditions: H460 cells grown in chamber slides
# Description: Terminal deoxynucleotidyl transferase mediated dUTP-biotin nick end labeling (TUNEL) assay was performed as described previously (Fujiwara et al., 1994). […] Cells were incubated in TdT buffer (30 mM Tris Hcl, pH 7.2; 140 mM cacodylate, 1 mM cobalt chloride) and incubated with biotinylated dUTP (Boehringer Mannheim, Indianapolis, Ind.) and 100 U/ml TdT enzyme (Bethesda Research Laboratory) for 1 h at 37° C. The avidin-biotin complex was detected using the Vectastain Elite kit (Vector Laboratory, Burlingame, Calif.), by the diaminobenzidine-H2O2 method.
# [6] = tested on: breast cancer cell line MCF-7; conditions: cited from earlier work
# [7] = tested on: p53 protein in normal bronchial epithelial cell lines; assay: Western blot analysis of p53 protein, normal bronchial epithelial cell lines; format: cell-based
# Description: (§3) Control and drug treated cells were washed in cold PBS, lysed in Laemmli's sample buffer, and subjected to western blot analysis as described previously (Mukhopadhyay et al., 1995). Blots were probed with Pab 1801 anti-p53 monoclonal antibody (Oncogene Sciences, Uniondale, N.Y.). The blot was further probed with anti-WAF1 monoclonal antibody (p21).
# (§4) Blots were washed in Tris-buffered saline containing 0.1% Tween 20, incubated with horse radish peroxidase conjugated to secondary antibody and specific immunocomplex was detected by enhanced chemiluminescence technique according to the manufacturer's directions (Amersham, Arlington, Ill.). Blots were reprobed with anti-actin monoclonal antibody (Amersham) to show the equal protein loading.
# [8] = tested on: solid tumors; conditions: cited from earlier work
# [9] = tested on: H322 cells (p53 mutated); assay: Apoptosis by FACS analysis, H322 cells; conditions: mutated cell line, after 48 h of 5 μm treatment
# Description: (§6) Control and treated cells were collected by trypsinization, washed in PBS and fixed in 70% ethanol overnight. The next day cells were rehydrated in PBS for 30 min, centrifuged, and resuspended in PBS. For DNA analysis, propidium iodide (Sigma) was added at 50 μg/ml, and the cells were incubated in the presence of RNase at 15 μg/ml for 30 min at 37° C. Flow cytometric analysis was carried out in a fluorescence-activated cell sorter (Coulter Epics Elite).
# (§7) Cells also were stained with biotinylated UTP for TUNEL assay to monitor the DNA fragmentation. H460 cells were grown in chamber slides and treated with the drugs and TdT staining was performed as described in Materials and Methods.
# [10] = tested on: p21WAF1/CIP1 protein; assay: Western blot with WAF1 monoclonal antibody (p21); format: cell-based, human
# Description: as §3, §4
# [11] = tested on: A549 cells; assay: Apoptosis by FACS analysis, A549 cells
# Description: as §6, §7
# [12] = tested on: lung cancer cell lines; assay: Cell cycle analysis by flow cytometry; format: cell-based, human; conditions: PI labeling, FACScan, 48 h treatment
# Description: It has been shown that induction of p21 causes p53-mediated G1 arrest and induces apoptosis. […] The cells were labeled with PI and cell cycle was analyzed by FACScan.
# [13] = tested on: wild-type p53 protein; assay: Western blot analysis of p53 protein, wild-type p53 lung cancer cell lines; format: cell-based, human
# Description: as §3, §4
# [14] = tested on: endothelial cells; conditions: cited from earlier work
# [15] = tested on: normal bronchial epithelium; assay: Response of normal bronchial epithelium to 2-MeOE2 treatment; format: cell-based
# [16] = tested on: H322 cells (p53 mutated); assay: Growth assay, H322 cell line; format: cell-based, human
# Description: as §1, §2
# (§5) The inventors tested the effect of 2-MeOE2 treatment on the growth characteristics of four different human lung cancer cell lines differing in their p53 status: H3.58 (p53 deleted), H322 (p53 mutated), H460 (wild-type p53), A549 (wild-type p53). […]
# [17] = tested on: H460 cells; assay: Apoptosis by FACS analysis, H460 cells
# Description: as §6, §7
# [18] = tested on: p53 mRNA; assay: Northern blot analysis of p53 mRNA; conditions: H460, 48 h after treatment
# Description: Total RNA was isolated from the subconfluent cultures using the guanidinium thiocyanate method (Chomczynsky and Sacchi, 1987). Twenty micrograms of total RNA was electrophoresed in 1.4% agarose/MOPS formaldehyde gel, transferred to nylon membrane and hybridized to a radiolabeled p53 cDNA probe as described previously (Mukhopadyay and Roth, 1993).
# [19] = tested on: colchicine binding site of the tubulin filaments; conditions: MCF-7 cell line; cited from earlier work
# [20] = tested on: H358 cells (p53 deleted); assay: Growth assay, H358 cell line; format: cell-based, human
# Description: as §1, §2, §5
# [21] = tested on: A549 cells (wild-type p53); assay: Growth assay, A549 cell line; format: cell-based, human
# [22] = tested on: mutated p53 protein; assay: Western blot analysis of p53 protein, H322 cell line; format: cell-based, human
# Description: as §3, §4
# [23] = dose response studies, after 48 h, lung cancer cell lines
compound,measurement,setting,value
"COc1cc2c(cc1O)CC[C@@H]1[C@@H]2CC[C@]2(C)[C@@H](O)CC[C@@H]12 [2-MeOE2, 2-methoxyestradiol]",effect on normal human skin fibroblasts,[1],no effect
same,growth inhibitory effect,"[2]; 5 μM, growth monitored for five days, H460 (wild-type p53)",significant growth inhibitory effect
same,cell death during the growth assay,"[2]; after 48 h, H460, crystal violet staining",significant increase in cell death
same,IC50,[3],150 nM
same,p53 DNA binding activity in nuclear extract vs untreated control,[4],three-fold increase
same,"DNA fragmentation (TUNEL, TdT staining)",[5],many apoptotic bodies
same,cytotoxic effect,[6],cytotoxic effect
same,level of p53 protein,[7],no increase
same,general cytotoxicity in vivo,[8]; in vivo studies,not associated with general cytotoxicity
same,capillary formation in solid tumors,"[8]; oral administration, mice",potent inhibition
same,growth of solid tumors,"[8]; oral administration, mice",reduced growth
same,apoptotic cell death,[9],no effect
same,increase in p21 protein expression,[10]; A549 cell line,3-5 fold
same,increase in p21 protein expression,[10]; H460 cell line,3-5 fold
same,concentration that stimulated p21 to a maximum level,[10]; [23],5 µM
same,"peak representing apoptotic cells (PI, FACScan)",[11]; A549 cell line,A peak representing apoptotic cells appeared
same,"apoptosis (DNA strand breaks, UTP-labeled biotin / FITC-avidin)",[11]; A549 cells,had undergone apoptosis
same,apoptotic cell death,"[11]; A549 cells, after 48 h of 5 μm treatment, FACS analysis",~48%
same,G1 arrest (cell cycle analysis),[12],no evidence of G1 arrest
same,concentration that stimulated p53 to a maximum level,[13]; [23],5 µM
same,increase of wild-type p53 protein levels,"[13]; during 48 h of treatment, lung cancer cell lines carrying wild-type p53",6- to 8 fold
same,angiogenesis in vitro,[14],inhibits
same,endothelial cell migration,[14]; in vitro,inhibits
same,"changes in response to treatment (p53 increase, apoptosis)",[15],did not show the observed changes
same,growth inhibitory effect,"[16]; 5 μM, growth monitored for five days, H322 (p53 mutated)",virtually no growth inhibitory effect
same,cell death during the growth assay,"[16]; after 48 h, H322, crystal violet staining",only two dead cells
same,"peak representing apoptotic cells (PI, FACScan)",[17]; H460 cell line,A peak representing apoptotic cells appeared
same,"apoptosis (DNA strand breaks, UTP-labeled biotin / FITC-avidin)",[17]; H460 cells,had undergone apoptosis
same,p53 mRNA levels,[18],no change
same,binding to tubulin,[19],bind to the colchicine binding site of the tubulin filaments
same,growth inhibitory effect,"[20]; 5 μM, growth monitored for five days, H358 (p53 deleted)",virtually no growth inhibitory effect
same,cell death during the growth assay,"[20]; after 48 h, H358, crystal violet staining",only two dead cells
same,growth inhibitory effect,"[21]; 5 μM, growth monitored for five days, A549 (wild-type p53)",significant growth inhibitory effect
same,cell death during the growth assay,"[21]; after 48 h, A549, crystal violet staining",significant increase in cell death
same,level of the mutated p53 protein,[22],no increase
"C[C@]12CC[C@@H]3c4ccc(O)cc4CC[C@H]3[C@@H]1C[C@H](O)[C@@H]2O [epistriol, 16-epiestriol, reference compound]","DNA fragmentation (TUNEL, TdT staining)",[5],little DNA fragmentation
same,G1 arrest (cell cycle analysis),[12],no evidence of G1 arrest
